Test results: PubChem BioAssay AID1259411 (Chemical Carcinogenesis Research Information System (CCRIS), 2018)
The source made the active and inactive calls. No rule for the calls is given here.

System: rodent carcinogenicity bioassays, tumor incidence
Assay: CCRIS carcinogenicity studies
Method in brief: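 NCI-built, expert-reviewed records of carcinogenicity and related test outcomes (mutagenicity, tumor promotion/inhibition) compiled from published and report sources, historical span 1985-2011, not updated.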

**Q.** With `OC[C@H]1O[C@@H]2O[C@H]3[C@H](O)[C@@H](O)[C@@H](O[C@H]4[C@H](O)[C@@H](O)[C@@H](O[C@H]5[C@H](O)[C@@H](O)[C@@H](O[C@H]6[C@H](O)[C@@H](O)[C@@H](O[C@H]7[C@H](O)[C@@H](O)[C@@H](O[C@H]8[C@H](O)[C@@H](O)[C@@H](O[C@H]1[C@H](O)[C@H]2O)O[C@@H]8CO)O[C@@H]7CO)O[C@@H]6CO)O[C@@H]5CO)O[C@@H]4CO)O[C@@H]3CO` as the molecule, how does the carcinogen call (Species: MOUSE, Strain/Sex: CD-1/FEMALE, Route: ORAL, Dose: 0, 25, 75, 225, 675 MG/KG/D IN DIET FOR 105 WK (STUDY DURATION: 105 WK), Dose: 0, 25, 75, 225, 675 MG/KG/D IN DIET FOR 105 WK (STUDY DURATION: 105 WK)) read?
**A.** Its carcinogen call is “inactive; negative”.

**Q.** And the carcinogen call (Species: MOUSE, Strain/Sex: CD-1/MALE, Route: ORAL, Dose: 0, 25, 75, 225, 675 MG/KG/D IN DIET FOR 93 WK (STUDY DURATION: 93 WK), Dose: 0, 25, 75, 225, 675 MG/KG/D IN DIET FOR 93 WK (STUDY DURATION: 93 WK))?
**A.** The carcinogen call was “inactive; negative”.

**Q.** What about the carcinogen call (Species: RAT, Strain/Sex: F344/FEMALE, Route: ORAL, Dose: 0, 2.5, 5% IN DIET FOR 104 WK (STUDY DURATION: 109 WK), Dose: 0, 2.5, 5% IN DIET FOR 104 WK (STUDY DURATION: 109 WK)) of the same molecule?
**A.** The carcinogen call was “inactive; negative”.

**Q.** And the carcinogen call (Species: RAT, Strain/Sex: F344/FEMALE, Route: ORAL, Dose: 0, 25, 75, 225, 675 MG/KG/D IN DIET FOR 130 WK (STUDY DURATION: 130 WK), Dose: 0, 25, 75, 225, 675 MG/KG/D IN DIET FOR 130 WK (STUDY DURATION: 130 WK))?
**A.** Its carcinogen call is “inactive; negative”.

**Q.** What about the carcinogen call (Species: RAT, Strain/Sex: F344/MALE, Route: ORAL, Dose: 0, 2.5, 5% IN DIET FOR 104 WK (STUDY DURATION: 109 WK), Dose: 0, 2.5, 5% IN DIET FOR 104 WK (STUDY DURATION: 109 WK)) of the same molecule?
**A.** The carcinogen call was “inactive; negative”.

**Q.** And the carcinogen call (Species: RAT, Strain/Sex: F344/MALE, Route: ORAL, Dose: 0, 25, 75, 225, 675 MG/KG/D IN DIET FOR 122 WK (STUDY DURATION: 122 WK), Dose: 0, 25, 75, 225, 675 MG/KG/D IN DIET FOR 122 WK (STUDY DURATION: 122 WK))?
**A.** The carcinogen call was “inactive; negative”.

**Q.** How did the carcinogen call (Species: Mouse, Strain/Sex: B6C3F1 / Female (50/Group), Route: Oral, Dose: 0, 250, 500, 1,000 mg/l in drinking water for 105 wk, Dose: 0, 250, 500, 1,000 mg/l in drinking water for 105 wk, Tumor Site: Type of Lesion: Liver: hepatocellular neoplasms) turn out when `O=C(O)C(Cl)Br` (stereo not drawn) was run?
**A.** The carcinogen call was “active; positive. authors describe as clear evidence”.

**Q.** What about the carcinogen call (Species: Mouse, Strain/Sex: B6C3F1 / Male (50/Group), Route: Oral, Dose: 0, 250, 500, 1,000 mg/l in drinking water for 105 wk, Dose: 0, 250, 500, 1,000 mg/l in drinking water for 105 wk, Tumor Site: Type of Lesion: Liver: hepatocellular neoplasms and hepatoblastoma) of the same molecule?
**A.** The carcinogen call was “active; positive. authors describe as clear evidence”.

**Q.** And the carcinogen call (Species: Rat, Strain/Sex: F344/N / Female (50/Group), Route: Oral, Dose: 0, 250, 500, 1,000 mg/l in drinking water for 105 wk, Dose: 0, 250, 500, 1,000 mg/l in drinking water for 105 wk, Tumor Site: Type of Lesion: Large Intestine: adenoma, Mammary Gland: multiple fibroadenomas, Pancreatic Islet: adenoma (may have been related), Tumor Site: Type of Lesion: Large Intestine: adenoma, Mammary Gland: multiple fibroadenomas, Pancreatic Islet: adenoma (may have been related))?
**A.** The carcinogen call was “active; positive (some of the p values do not reach significance.) authors describe as c”.

**Q.** And the carcinogen call (Species: Rat, Strain/Sex: F344/N / Male (50/Group), Route: Oral, Dose: 0, 250, 500, 1,000 mg/l in drinking water for 105 wk, Dose: 0, 250, 500, 1,000 mg/l in drinking water for 105 wk, Tumor Site: Type of Lesion: Mesothelium: malignant mesothelioma, Large Intestine: adenoma, Pancreatic Islet: adenoma (may have been related), Tumor Site: Type of Lesion: Mesothelium: malignant mesothelioma, Large Intestine: adenoma, Pancreatic Islet: adenoma (may have been related))?
**A.** The carcinogen call was “active; positive. authors describe as clear evidence”.

**Q.** How did the carcinogen call (Species: RAT, Strain/Sex: SPRAGUE-DAWLEY/FEMALE, Route: ORAL, Dose: 0, 6, 20, 44, 92, 200 NG/KG/D (STUDY DURATION: 2 YRS), Dose: 0, 6, 20, 44, 92, 200 NG/KG/D (STUDY DURATION: 2 YRS)) turn out when `Clc1cc2oc3c(Cl)c(Cl)c(Cl)cc3c2cc1Cl` was run?
**A.** The carcinogen call was “inactive; negative”.

**Q.** What about the carcinogen call (Species: RAT, Strain/Sex: WISTAR/MALE, Route: SUBCUTANEOUS, Dose: 0, 4, 40 UG ONCE IN OLIVE OIL (STUDY DURATION: 104 WK), Dose: 0, 4, 40 UG ONCE IN OLIVE OIL (STUDY DURATION: 104 WK), Tumor Site: Type of Lesion: LIVER: HEPATOCELLULAR CARCINOMA, NODULE, INJECTION SITE: TUMOR) of the same molecule?
**A.** The carcinogen call was “active; positive”.

**Q.** What about the carcinogen call (Species: RAT, Strain/Sex: WISTAR/MALE, Route: SUBCUTANEOUS, Dose: 0, 4, 40 UG ONCE IN OLIVE OIL (STUDY DURATION: 104 WK), Dose: 0, 4, 40 UG ONCE IN OLIVE OIL (STUDY DURATION: 104 WK), Tumor Site: Type of Lesion: LIVER: NODULE, INJECTION SITE: TUMOR) of the same molecule?
**A.** The carcinogen call was “active; positive”.

**Q.** And the carcinogen call (Species: RAT, Strain/Sex: WISTAR/MALE, Route: SUBCUTANEOUS, Dose: 0, 20 UG IN OLIVE OIL 1/WK INTO BACK FOR 4 WK (STUDY DURATION: 104 WK), Tumor Site: Type of Lesion: LIVER: NODULE, INJECTION SITE: TUMOR)?
**A.** Its carcinogen call is “active; positive”.

**Q.** And the carcinogen call (Species: RAT, Strain/Sex: WISTAR/MALE, Route: SUBCUTANEOUS, Dose: 0, 20 UG IN OLIVE OIL INTO BACK 1/WK FOR 4 WK (STUDY DURATION: 104 WK), Tumor Site: Type of Lesion: LIVER: HEPATOCELLULAR CARCINOMA, NODULE)?
**A.** Its carcinogen call is “active; positive”.

**Q.** And the carcinogen call (Species: Rat, Strain/Sex: Harlan Sprague-Dawley/Female, Route: Gavage, Dose: 0, 200 ng 5 d/wk in corn oil:acetone (99:1) for 30 wk and then vehicle for remainder of 2 yr study, Tumor Site: Type of Lesion: Oral Mucosa: Gingival squamous cell carcinoma (1/53, 3/50) Pancreas: Acinar adenoma or carcinoma (0/53, 2/49))?
**A.** Its carcinogen call is “active; positive trend (not statistically significant); for stop study vs. controls, inc”.

**Q.** What about the carcinogen call (Species: Rat, Strain/Sex: Harlan Sprague-Dawley/Female, Route: Gavage, Dose: 0, 6, 20, 44, 92, 200 ng in corn oil:acetone (99:1) 5 d/wk for 2 yrs, Dose: 0, 6, 20, 44, 92, 200 ng in corn oil:acetone (99:1) 5 d/wk for 2 yrs, Tumor Site: Type of Lesion: Liver: Hepatocellular adenoma (1/53, 0/53, 1/53, 0/52, 2/53, 4/53), Cholangiocarcinoma (0/53, 0/53, 0/53, 1/52, 1/53, 2/) of the same molecule?
**A.** The carcinogen call was “active; positive (ntp reports as some evidence; findings in lung, pancreas, and uterus d”.

**Q.** `O=[N+]([O-])c1ccc2c(ccc3c4ccccc4ccc23)c1` was tested. Which carcinogen call (Species: MOUSE, Strain/Sex: ICR/FEMALE, Route: INTRAPERITONEAL, Dose: 0, 100 NMOL (TOTAL DOSE) ADMINISTERED IN 3 SUBDOSES OF 1/7, 2/7, AND 4/7 ON DAYS 1, 8 AND 15 OF LIFE, RESPECTIVELY (STUD) did it give?
**A.** The carcinogen call was “inactive; negative”.

**Q.** And the carcinogen call (Species: MOUSE, Strain/Sex: ICR/MALE, Route: INTRAPERITONEAL, Dose: 0, 100 NMOL (TOTAL DOSE) ADMINISTERED IN 3 SUBDOSES OF 1/7, 2/7, AND 4/7 ON DAYS 1, 8 AND 15 OF LIFE, RESPECTIVELY (STUD)?
**A.** Its carcinogen call is “inactive; negative”.

**Q.** For `CCCOC(N)=O`, which carcinogen call (Species: MOUSE, Route: INTRAPERITONEAL, Tumor Site: Type of Lesion: LUNG) is on record?
**A.** The carcinogen call was “active; positive”.

**Q.** Which carcinogen call (Species: MOUSE, Strain/Sex: B6C3F1/FEMALE, Route: ORAL, Dose: 0, 750, 1500 PPM IN DIET FOR 104 WK (STUDY DURATION: 105 WK), Dose: 0, 750, 1500 PPM IN DIET FOR 104 WK (STUDY DURATION: 105 WK)) does the source give for `O=Nc1ccc(NO)cc1` here?
**A.** The carcinogen call was “inactive; negative”.

**Q.** And the carcinogen call (Species: MOUSE, Strain/Sex: B6C3F1/MALE, Route: ORAL, Dose: 0, 750, 1500 PPM IN DIET FOR 104 WK (STUDY DURATION: 105 WK), Dose: 0, 750, 1500 PPM IN DIET FOR 104 WK (STUDY DURATION: 105 WK))?
**A.** The carcinogen call was “inactive; negative”.

**Q.** What about the carcinogen call (Species: RAT, Strain/Sex: F344/FEMALE, Route: ORAL, Dose: 0, 375, 750 PPM IN DIET FOR 104 WK (STUDY DURATION: 105 WK), Dose: 0, 375, 750 PPM IN DIET FOR 104 WK (STUDY DURATION: 105 WK), Tumor Site: Type of Lesion: URINARY BLADDER: TRANSITIONAL CELL CARCINOMA, TRANSITIONAL CELL PAPILLOMA OR SQUAMOUS CELL CARCINOMA) of the same molecule?
**A.** The carcinogen call was “active; positive”.

**Q.** What about the carcinogen call (Species: RAT, Strain/Sex: F344/MALE, Route: ORAL, Dose: 0, 375, 750 PPM IN DIET FOR 104 WK (STUDY DURATION: 105 WK), Dose: 0, 375, 750 PPM IN DIET FOR 104 WK (STUDY DURATION: 105 WK)) of the same molecule?
**A.** Its carcinogen call is “inactive; negative”.

**Q.** Which carcinogen call (Species: MOUSE, Strain/Sex: B6C3F1/FEMALE, Route: ORAL, Dose: 0, 30, 90, 270 MG/KG/D IN DIET FOR 104 WK (STUDY DURATION: 104 WK), Dose: 0, 30, 90, 270 MG/KG/D IN DIET FOR 104 WK (STUDY DURATION: 104 WK)) does the source give for `Cc1cccc(C)c1NC(=O)CN1CCCC1=O` here?
**A.** Its carcinogen call is “inactive; negative”.

**Q.** And the carcinogen call (Species: MOUSE, Strain/Sex: B6C3F1/MALE, Route: ORAL, Dose: 0, 30, 90, 270 MG/KG/D IN DIET FOR 104 WK (STUDY DURATION: 104 WK), Dose: 0, 30, 90, 270 MG/KG/D IN DIET FOR 104 WK (STUDY DURATION: 104 WK))?
**A.** Its carcinogen call is “inactive; negative”.

**Q.** What about the carcinogen call (Species: RAT, Strain/Sex: F344/FEMALE, Route: ORAL, Dose: 0, 200, 600, 1800 PPM IN DIET FOR 104 WK (STUDY DURATION: 104 WK), Dose: 0, 200, 600, 1800 PPM IN DIET FOR 104 WK (STUDY DURATION: 104 WK)) of the same molecule?
**A.** The carcinogen call was “inactive; negative”.

**Q.** What about the carcinogen call (Species: RAT, Strain/Sex: F344/MALE, Route: ORAL, Dose: 0, 200, 600, 1800 PPM IN DIET FOR 104 WK (STUDY DURATION: 104 WK), Dose: 0, 200, 600, 1800 PPM IN DIET FOR 104 WK (STUDY DURATION: 104 WK)) of the same molecule?
**A.** The carcinogen call was “inactive; negative”.
